Results taken from US7012093B2, “Multiple fluorescent natural dye compound from a marine organism and method of use thereof” (Council of Scientific & Industrial Research, priority 2001, dated 2006).
“Also recorded” adds a separate entry of the source.

Key:
[1] = Solubility of the compound; type: physicochemical; details: for solubility in organic solvents: ethanol, methanol, acetone
[2] = Biosurfactant nature (shaking of solutions); type: physicochemical; details: 0.001 mg–0.01 mg per ml solutions
[3] = Stability of the compound cum dye at the sub zero temperatures; type: physicochemical
Description: In yet another embodiment stability of the compound cum Dye at the sub Zero temperatures is seen. The compound in its diluted form 5×10^−6 was taken in a microfuge tube and kept at −20 degree centigrade and seen in the frozen state under UV light.
The compound in its diluted form 5×10^−6 was taken in a microfuge tube and kept at −20 degree centigrade and seen in the frozen state under UV light.

[4] = Stability check of the dye (temperature, shelf life, light); type: physicochemical
Protocol: (§1) The pure hydrogen form of the compound is having the pH of 2.8. The salt form of the compound is stable up to 300° C. without the change of physical and chemical characters. The compound in aqueous solution in a very diluted form (5×10^−6 concentration) is pale yellow in color with the naked eye and the concentrated solution is reddish brown in color.
The compound retained its stability for about a year without any contamination or chemical decay.

ticks/fleas of dogs = experiment: Veterinary remedy: killing ticks/fleas of dogs; type: in vivo, ticks and fleas
Description: In yet another embodiment, the utility of the dye as a Veterinary remedy for ticks and fleas of pets is seen. The extract is used as veterinary remedy for killing ticks/fleas of dogs. 5×10^−6 concentration of dye in 1:200 dilutions killed ticks and fleas in less than 20 seconds. The extract was used as veterinary remedy for killing ticks/fleas of dogs. 5×10^−8 concentration of the purified compound cum dye killed ticks and fleas in less than 20 seconds.

[5] = pH of the compound and pH sensitivity of emissions; type: physicochemical
Protocol: as §1
The dye has a pH of 2.8 and their spectral emissions are not affected at different pH range i.e. from pH 2.8–8.0.

ants = experiment: Pesticidal effect (filter paper soaked in the dye); type: in vivo; details: filter paper soaked in the dye left on the workbench; next day full of dead ants
Description: In yet another embodiment, the pesticidal effect of the compound cum dye is noticed. […] The filter paper soaked in the dye was left unattended on the workbench. Next day it was noticed full of dead ants. […] The filter paper soaked in the dye was left unattended on the workbench. Next day it was noticed full of dead ants.

E. coli (wild type) = experiment: Anti-microbial test (zone of inhibition, filter paper disk on seeded agar); type: cell-based; details: 10 mg/ml of the sample soaked in filter paper disks, 37° C., 24 hours
Protocol: In yet another embodiment, anti-microbial test of the compound cum dye is done. […] As the marine dye is, a phenolic compound and phenolic compounds are generally having Anti-microbial activity, the anti-microbial assay was performed with this compound and the zone of inhibition was observed. E. coli (wild type) culture was grown overnight in MacConkey's broth 50 ml in a conical flask (100 ml). Antibiotic assay agar medium was prepared and sterilized. It was then brought to a temperature of 50 degree centigrade and 1 ml of E. coli (wild type) culture was added to it. The culture was mixed with antibiotic assay agar medium and was allowed to solidify. 10 mg/ml of the sample was prepared and soaked in filter paper disks. It was then placed upon the said antibiotic assay agar medium seeded with E. coli. It was then incubated at 37° C. in an incubator for 24 hours.

Substance: Phenolic sulphated silicated polysaccharide [PSSP-1]
- solubility in organic solvents [1]: insoluble in the organic solvents including ethanol, methanol and acetone
- solubility in organic solvents ([1]; listed as dye): insoluble in the organic solvents like ethanol, methanol and acetone
- solubility in water [1]: soluble in water
- solubility in water ([1]; listed as dye): more than the solubility characters of Fluorescein; also recorded: highly water-soluble
- frothing on shaking [2]: frothing was seen
- frothing on shaking ([2]; listed as dye): frothing is seen
- fluorescence in the frozen state ([3]; diluted form 5×10^−6, −20 degree centigrade, under UV light): persisted without any deterioration
- fluorescence after freezing in liquid nitrogen ([3]; frozen in the liquid nitrogen): remained unaffected
- photolysis after light treatment ([4]; exposure to light, listed as dye): does not undergo photolysis after exposure to light; also recorded: did not undergo photolysis after light treatment
- temperature up to which the dye is stable (no alteration of the spectral property) ([4]; heating, fluorescent spectral properties unchanged): up to 300 degree Centigrade
- duration of retained stability without contamination or chemical decay ([4]; room temperature): about a year
- persistence of fluorescence at the room temperature ([4]; room temperature): at least 1 year
- duration of retained stability without contamination or chemical decay ([4]; room temperature, listed as dye): above a year
- time to kill ticks and fleas (ticks/fleas of dogs; 5×10^−6 concentration of dye in 1:200 dilutions): less than 20 seconds
- time to kill ticks and fleas (ticks/fleas of dogs; 5×10^−8 concentration of the purified compound cum dye): less than 20 seconds
- pH [5]: 2.8
- effect of pH on spectral emissions ([5]; pH 2.8–8.0): not affected
- toxicity to insects (ants): toxic to insects
- zone of inhibition (E. coli (wild type); listed as compound cum dye): zone of inhibition is observed
- zone of inhibition (E. coli (wild type); listed as dye): Zone of inhibition surrounding the filter disk was observed
